Experimental data reported in patent US10058520B2, “Compositions and methods for treating alzheimer's disease and dementia” (Department of Veterans Affairs, priority 2007, dated 2018).

Assays:
[1] = humans and mice; previous studies; cited from earlier work
[2] = test system: insulin levels; settings: previous studies; concentration dependent relative to the amount of zinc; cited from earlier work
[3] = test system: human Aβ 1-40 and 1-42; assay: ELISA for human Aβ in brain of huAPP transgenic mice treated with CHP+Zn; type: in vivo, human APP transgenic mice; settings: 1.0 mg/L CHP+10 mg/L Zn, or Zn or CHP alone, n=9, FIG. 14
Excerpt: According to our studies, CHP in combination with a zinc salt decreases Aβ 1-40 and 1-42 in mice transgenic for human APP. […]
In some embodiments, higher doses are effective as well.

[4] = blood, after a single dose; cited from earlier work
[5] = test system: APP secretion in SH-SY5Y and LA-N-5 human neuroblastoma cell lines and NHNP neuronal progenitor cells; assay: APP isoform secretion in human neuroblastoma and neuronal progenitor cells (western blot); type: cell-based; settings: differentiated (+RA) and undifferentiated (-RA) SH-SY5Y, all tested human cell lines, 24 hours of treatment, FIG. 1
[6] = test system: human Aβ 1-40 and 1-42; assay: ELISA for human Aβ in brain of R1.40 huAPP transgenic mice treated with T4; type: in vivo, R1.40 human APP transgenic mice
Excerpt: In another study, we discovered that thyroid hormone down-regulates Aβ 1-40 and 1-42 in mice transgenic for the human APP gene. […] R1.40 human APP transgenic mice contain the entire human APP gene carried on a yeast artificial chromosome.
Mice used in these studies carried the complete human APP gene (huAPP), including the 5′ upstream promoter region, inserted into a yeast artificial chromosome (YAC) construct and are referred to as huAPP-YAC transgenic mice (R1.40 strain). The huAPP gene in these mice contained the Swedish mutation and is expressed in high pathology brain regions.
R1.40 mice were implanted with T4 containing slow release pellets for three weeks and ELISA specific for human Aβ was performed utilizing normalized protein from mouse brain cytosols. We observed a 30% decrease in human Aβ 1-42 levels and a 25% decrease in Aβ 1-40 levels in mice treated for three weeks with T4. […] Thus, it has been shown that low level thyroid hormone therapy substantially decreases human Aβ40 and Aβ42 levels in both normal and hypothyroid transgenic mice (n=9 animals per group ±SD).

[7] = test system: APP gene; assay: RT-PCR of APP mRNA in brain of normal mice; type: in vivo; settings: normal mouse brain, day 21; FIG. 2 and 3; APP 751 mRNA for hypothyroid mice
Excerpt: On day 21, animals were killed, whole brains were removed and hemisected for protein and RNA analysis, and serum was collected for T4 analysis.

[8] = test system: APP isoforms; assay: Western blot with anti-APP antibody on hemisected brain extracts; type: in vivo, mice; settings: day 21, FIG. 4
Protocol: In FIG. 4, Western blots were performed utilizing anti-APP antibody on protein from the hemisected brain extracts.

[9] = test system: +356/+755 region of the first intron of the mouse mdm2 gene in LA-N-5 neuroblastoma cells and HCC1806 breast cancer cells; assay: pGL3MDM2 reporter transfection assay; type: cell-based; settings: LA-N-5 and p53 negative HCC1806 cells; FIG. 8 (treatment with T3)
Excerpt: In order to evaluate the direct effect of thyroid hormone on mdm2 gene expression, we cloned the +356/+755 region from the first intron of the mouse mdm2 gene into pGL3-Promoter vector (pGL3MDM2) for use in transfection assays. This region contains an element which binds monomers and homodimers of TRα, in addition to heterodimers of TRα and RXRβ.

[10] = R1.40 mice, T4 slow release pellets for three weeks, brain cytosols, ELISA

O=C1N[C@@H](Cc2cnc[nH]2)C(=O)N2CCC[C@@H]12 [CHP, cyclo-Hispro]
toxicity [1]: non-toxic | insulin levels [2]: does not decrease | brain levels of soluble and insoluble Aβ40 and Aβ42 vs control [3]: no significant changes

N[C@@H](Cc1cc(I)c(Oc2ccc(O)c(I)c2)c(I)c1)C(=O)O [T3, L-triiodothyronine]
half-life [4]: hours | APP secretion [5]: negative hormonal regulation of APP secretion in a concentration dependent manner

NC(Cc1cc(I)c(Oc2cc(I)c(O)c(I)c2)c(I)c1)C(=O)O (stereo not shown) [T4, 3:5,3′:5′ tetra-iodothyronine]
half-life [4]: several days | decrease in Aβ 1-40 levels [6, 10]: 25% | decrease in human Aβ 1-42 levels [6, 10]: 30%

[Zn] [Zn]
brain levels of soluble and insoluble Aβ40 and Aβ42 vs control [3]: no significant changes

CCCc1cc(=O)[nH]c(=S)[nH]1 [propylthiouracil]
brain Aβ levels in hypothyroid animals ([6]; iodine-deficient PTU diet for three weeks, FIG. 6): increase | APP mRNA levels (RT-PCR) vs control animals [7]: increased | expression of APP isoforms (western blot) relative to euthyroid animals [8]: increased

thyroid hormone
reporter expression of pGL3MDM2 [9]: negative regulation
